In ChEMBL document CHEMBL4715770, “Inhibition of Low Molecular Weight Protein Tyrosine Phosphatase by an Induced-Fit Mechanism” (J Med Chem, 2016):
pIC50: −log10 of the molar value.

Columns and labels:
[1] = target: Receptor-type tyrosine-protein phosphatase S (Homo sapiens, UniProt Q13332); test: Inhibition of His-tagged PTPsigma (unknown origin) expressed in Escherichia coli BL21 cells using para-nitrophenyl phosphate as substrate incubated for 5 to 10 mins by microplate reader based spectrophotometric analysis
Receptor-type tyrosine-protein phosphatase S, sequence (Q13332 whole entry): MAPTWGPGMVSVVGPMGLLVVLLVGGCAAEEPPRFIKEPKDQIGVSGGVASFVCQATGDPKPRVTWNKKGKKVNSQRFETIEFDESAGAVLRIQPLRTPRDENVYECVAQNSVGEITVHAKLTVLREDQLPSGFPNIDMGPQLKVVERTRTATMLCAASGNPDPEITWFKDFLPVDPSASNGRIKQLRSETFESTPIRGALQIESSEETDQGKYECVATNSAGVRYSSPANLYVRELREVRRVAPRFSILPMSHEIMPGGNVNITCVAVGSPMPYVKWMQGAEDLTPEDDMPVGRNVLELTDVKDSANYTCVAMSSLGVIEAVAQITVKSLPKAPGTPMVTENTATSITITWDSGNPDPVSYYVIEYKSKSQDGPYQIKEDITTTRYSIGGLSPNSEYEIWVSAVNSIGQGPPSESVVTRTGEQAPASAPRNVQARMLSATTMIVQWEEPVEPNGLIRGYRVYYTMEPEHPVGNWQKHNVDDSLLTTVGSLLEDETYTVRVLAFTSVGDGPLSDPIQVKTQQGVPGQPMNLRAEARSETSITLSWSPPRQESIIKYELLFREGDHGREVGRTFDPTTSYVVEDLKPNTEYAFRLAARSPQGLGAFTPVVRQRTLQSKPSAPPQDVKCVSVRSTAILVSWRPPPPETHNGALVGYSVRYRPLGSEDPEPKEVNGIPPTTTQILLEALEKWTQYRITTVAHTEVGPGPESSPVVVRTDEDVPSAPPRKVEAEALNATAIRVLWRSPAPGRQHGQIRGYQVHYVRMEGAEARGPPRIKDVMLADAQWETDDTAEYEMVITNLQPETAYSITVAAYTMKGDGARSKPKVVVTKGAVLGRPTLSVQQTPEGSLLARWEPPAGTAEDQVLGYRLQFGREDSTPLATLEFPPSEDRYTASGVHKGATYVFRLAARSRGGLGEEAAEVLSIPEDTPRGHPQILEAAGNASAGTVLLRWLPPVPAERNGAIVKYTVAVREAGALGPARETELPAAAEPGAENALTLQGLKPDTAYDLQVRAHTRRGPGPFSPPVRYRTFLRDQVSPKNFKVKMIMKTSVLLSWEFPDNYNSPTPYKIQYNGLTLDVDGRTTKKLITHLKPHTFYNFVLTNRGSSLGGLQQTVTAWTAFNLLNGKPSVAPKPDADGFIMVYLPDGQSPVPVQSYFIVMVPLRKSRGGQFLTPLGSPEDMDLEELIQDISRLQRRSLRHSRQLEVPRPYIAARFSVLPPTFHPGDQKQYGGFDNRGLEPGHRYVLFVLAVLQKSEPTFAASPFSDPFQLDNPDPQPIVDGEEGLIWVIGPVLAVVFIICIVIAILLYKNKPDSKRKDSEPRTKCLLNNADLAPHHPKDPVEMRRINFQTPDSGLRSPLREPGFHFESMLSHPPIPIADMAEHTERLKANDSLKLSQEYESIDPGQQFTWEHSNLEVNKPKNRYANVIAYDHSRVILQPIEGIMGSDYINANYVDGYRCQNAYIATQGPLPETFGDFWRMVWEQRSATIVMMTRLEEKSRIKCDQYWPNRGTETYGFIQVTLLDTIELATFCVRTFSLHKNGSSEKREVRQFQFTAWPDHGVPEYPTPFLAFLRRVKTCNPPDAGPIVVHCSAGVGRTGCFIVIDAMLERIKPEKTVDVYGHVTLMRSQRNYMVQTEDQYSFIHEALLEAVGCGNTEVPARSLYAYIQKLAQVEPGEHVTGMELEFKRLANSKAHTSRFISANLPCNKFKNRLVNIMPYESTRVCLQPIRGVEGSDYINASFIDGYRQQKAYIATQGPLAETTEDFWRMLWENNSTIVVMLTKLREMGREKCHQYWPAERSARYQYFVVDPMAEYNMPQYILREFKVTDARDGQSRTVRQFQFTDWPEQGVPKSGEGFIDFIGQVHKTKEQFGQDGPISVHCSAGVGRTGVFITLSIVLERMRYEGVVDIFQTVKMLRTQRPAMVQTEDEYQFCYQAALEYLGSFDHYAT

[2] = target: Receptor-type tyrosine-protein phosphatase mu (Homo sapiens, UniProt P28827); test: Inhibition of His-tagged PTPmu (unknown origin) expressed in Escherichia coli BL21 cells using para-nitrophenyl phosphate as substrate incubated for 5 to 10 mins by microplate reader based spectrophotometric analysis
Receptor-type tyrosine-protein phosphatase mu, sequence (P28827 whole entry): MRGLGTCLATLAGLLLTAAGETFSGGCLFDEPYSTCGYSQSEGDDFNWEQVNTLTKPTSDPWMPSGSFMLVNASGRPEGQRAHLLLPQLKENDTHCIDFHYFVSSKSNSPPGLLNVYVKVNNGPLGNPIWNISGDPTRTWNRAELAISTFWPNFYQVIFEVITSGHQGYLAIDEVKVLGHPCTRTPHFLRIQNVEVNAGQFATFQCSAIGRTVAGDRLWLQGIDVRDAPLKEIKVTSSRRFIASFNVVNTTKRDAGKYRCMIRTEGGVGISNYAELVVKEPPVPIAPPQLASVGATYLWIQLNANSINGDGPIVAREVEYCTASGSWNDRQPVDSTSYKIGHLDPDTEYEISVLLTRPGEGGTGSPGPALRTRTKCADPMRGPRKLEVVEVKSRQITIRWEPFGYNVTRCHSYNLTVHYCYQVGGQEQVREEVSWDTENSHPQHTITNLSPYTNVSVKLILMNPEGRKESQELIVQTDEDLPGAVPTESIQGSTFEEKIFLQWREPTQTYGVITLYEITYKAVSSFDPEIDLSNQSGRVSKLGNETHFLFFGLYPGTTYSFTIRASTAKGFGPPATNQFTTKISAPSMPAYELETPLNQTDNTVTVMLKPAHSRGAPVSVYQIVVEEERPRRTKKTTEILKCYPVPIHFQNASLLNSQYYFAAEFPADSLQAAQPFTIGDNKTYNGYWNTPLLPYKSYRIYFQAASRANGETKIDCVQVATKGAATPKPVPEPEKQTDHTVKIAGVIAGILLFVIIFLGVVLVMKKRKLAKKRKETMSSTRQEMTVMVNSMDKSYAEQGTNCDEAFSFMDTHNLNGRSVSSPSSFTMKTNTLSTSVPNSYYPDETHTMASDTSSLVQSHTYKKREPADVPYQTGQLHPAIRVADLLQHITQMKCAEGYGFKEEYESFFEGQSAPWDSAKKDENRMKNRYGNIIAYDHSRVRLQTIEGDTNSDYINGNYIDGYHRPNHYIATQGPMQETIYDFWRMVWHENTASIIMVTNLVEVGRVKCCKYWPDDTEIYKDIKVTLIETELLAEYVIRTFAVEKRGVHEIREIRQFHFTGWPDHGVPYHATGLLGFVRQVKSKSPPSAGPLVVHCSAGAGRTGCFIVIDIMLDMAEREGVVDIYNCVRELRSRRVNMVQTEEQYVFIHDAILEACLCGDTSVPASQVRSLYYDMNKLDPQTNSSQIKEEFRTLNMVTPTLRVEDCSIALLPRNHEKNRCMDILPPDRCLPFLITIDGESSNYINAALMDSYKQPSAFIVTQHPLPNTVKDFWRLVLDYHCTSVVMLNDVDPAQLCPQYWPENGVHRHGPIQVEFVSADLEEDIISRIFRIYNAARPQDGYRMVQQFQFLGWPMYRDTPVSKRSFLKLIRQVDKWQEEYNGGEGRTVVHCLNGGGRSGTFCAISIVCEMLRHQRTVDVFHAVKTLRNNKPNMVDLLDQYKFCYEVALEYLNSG

[3] = target: Receptor-type tyrosine-protein phosphatase epsilon (Homo sapiens, UniProt P23469); test: Inhibition of His-tagged PTPepsilon (unknown origin) expressed in Escherichia coli BL21 cells using para-nitrophenyl phosphate as substrate incubated for 5 to 10 mins by microplate reader based spectrophotometric analysis
Receptor-type tyrosine-protein phosphatase epsilon, sequence (P23469 whole entry): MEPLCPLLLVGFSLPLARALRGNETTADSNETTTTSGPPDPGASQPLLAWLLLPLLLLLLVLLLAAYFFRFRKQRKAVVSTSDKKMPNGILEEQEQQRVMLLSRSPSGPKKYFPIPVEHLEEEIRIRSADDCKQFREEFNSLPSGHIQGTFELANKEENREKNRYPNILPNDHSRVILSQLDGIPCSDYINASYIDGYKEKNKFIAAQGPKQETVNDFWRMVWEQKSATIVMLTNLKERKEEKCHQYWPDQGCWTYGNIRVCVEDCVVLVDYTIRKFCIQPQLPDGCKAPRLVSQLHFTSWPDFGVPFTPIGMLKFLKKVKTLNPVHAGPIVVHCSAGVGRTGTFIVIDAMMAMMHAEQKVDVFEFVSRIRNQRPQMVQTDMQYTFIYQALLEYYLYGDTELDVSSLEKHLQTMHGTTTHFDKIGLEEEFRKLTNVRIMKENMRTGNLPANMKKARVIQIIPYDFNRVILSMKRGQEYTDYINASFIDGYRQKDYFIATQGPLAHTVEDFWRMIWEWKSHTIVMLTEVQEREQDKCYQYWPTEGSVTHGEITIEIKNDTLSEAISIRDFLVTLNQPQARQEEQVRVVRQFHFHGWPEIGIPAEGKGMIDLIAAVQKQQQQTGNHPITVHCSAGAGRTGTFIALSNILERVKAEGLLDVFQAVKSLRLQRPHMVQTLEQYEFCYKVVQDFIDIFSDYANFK

[4] = target: T1, Tyrosine-protein phosphatase non-receptor type 9 (Homo sapiens, UniProt P43378); test: Inhibition of His-tagged PTP-MEG2 (unknown origin) expressed in Escherichia coli BL21 cells using para-nitrophenyl phosphate as substrate incubated for 5 to 10 mins by microplate reader based spectrophotometric analysis
T1 sequence (P43378 whole entry): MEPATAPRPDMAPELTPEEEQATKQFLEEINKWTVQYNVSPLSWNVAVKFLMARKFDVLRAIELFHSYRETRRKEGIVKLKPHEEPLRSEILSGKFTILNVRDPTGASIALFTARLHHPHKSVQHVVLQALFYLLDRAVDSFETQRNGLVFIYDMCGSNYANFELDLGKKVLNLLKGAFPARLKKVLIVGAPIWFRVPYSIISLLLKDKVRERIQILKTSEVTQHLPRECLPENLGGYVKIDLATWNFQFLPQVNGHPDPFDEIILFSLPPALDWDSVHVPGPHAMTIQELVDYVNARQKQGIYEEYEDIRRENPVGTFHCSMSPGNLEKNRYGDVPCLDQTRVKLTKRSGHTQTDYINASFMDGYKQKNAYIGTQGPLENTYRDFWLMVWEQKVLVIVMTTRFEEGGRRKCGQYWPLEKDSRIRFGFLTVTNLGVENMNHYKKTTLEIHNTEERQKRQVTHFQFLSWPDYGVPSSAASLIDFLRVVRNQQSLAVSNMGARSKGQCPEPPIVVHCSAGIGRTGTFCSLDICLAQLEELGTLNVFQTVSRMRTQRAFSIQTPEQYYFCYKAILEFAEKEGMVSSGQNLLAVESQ

[5] = target: T2, Serine/threonine-protein phosphatase 5 (Homo sapiens, UniProt P53041); test: Inhibition of His-tagged PP5 (unknown origin) expressed in Escherichia coli BL21 cells using para-nitrophenyl phosphate as substrate incubated for 5 to 10 mins by microplate reader based spectrophotometric analysis
T2 sequence (P53041 whole entry): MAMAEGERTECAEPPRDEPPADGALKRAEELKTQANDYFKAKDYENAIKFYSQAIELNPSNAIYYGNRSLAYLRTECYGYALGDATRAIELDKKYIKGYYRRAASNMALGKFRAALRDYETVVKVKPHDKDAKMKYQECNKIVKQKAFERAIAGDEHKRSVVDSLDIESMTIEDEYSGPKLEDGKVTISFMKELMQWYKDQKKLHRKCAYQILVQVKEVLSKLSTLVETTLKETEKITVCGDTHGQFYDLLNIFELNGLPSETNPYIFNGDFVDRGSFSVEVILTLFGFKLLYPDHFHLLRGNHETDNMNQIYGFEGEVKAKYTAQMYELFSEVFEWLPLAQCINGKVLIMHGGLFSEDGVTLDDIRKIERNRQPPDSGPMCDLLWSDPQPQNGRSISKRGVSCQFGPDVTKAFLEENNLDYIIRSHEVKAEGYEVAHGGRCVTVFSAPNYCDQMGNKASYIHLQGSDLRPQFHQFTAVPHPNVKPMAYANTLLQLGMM

[6] = target: Receptor-type tyrosine-protein phosphatase alpha (Homo sapiens, UniProt P18433); test: Inhibition of His-tagged PTPalpha (unknown origin) expressed in Escherichia coli BL21 cells using para-nitrophenyl phosphate as substrate incubated for 5 to 10 mins by microplate reader based spectrophotometric analysis
Receptor-type tyrosine-protein phosphatase alpha, sequence (P18433 whole entry): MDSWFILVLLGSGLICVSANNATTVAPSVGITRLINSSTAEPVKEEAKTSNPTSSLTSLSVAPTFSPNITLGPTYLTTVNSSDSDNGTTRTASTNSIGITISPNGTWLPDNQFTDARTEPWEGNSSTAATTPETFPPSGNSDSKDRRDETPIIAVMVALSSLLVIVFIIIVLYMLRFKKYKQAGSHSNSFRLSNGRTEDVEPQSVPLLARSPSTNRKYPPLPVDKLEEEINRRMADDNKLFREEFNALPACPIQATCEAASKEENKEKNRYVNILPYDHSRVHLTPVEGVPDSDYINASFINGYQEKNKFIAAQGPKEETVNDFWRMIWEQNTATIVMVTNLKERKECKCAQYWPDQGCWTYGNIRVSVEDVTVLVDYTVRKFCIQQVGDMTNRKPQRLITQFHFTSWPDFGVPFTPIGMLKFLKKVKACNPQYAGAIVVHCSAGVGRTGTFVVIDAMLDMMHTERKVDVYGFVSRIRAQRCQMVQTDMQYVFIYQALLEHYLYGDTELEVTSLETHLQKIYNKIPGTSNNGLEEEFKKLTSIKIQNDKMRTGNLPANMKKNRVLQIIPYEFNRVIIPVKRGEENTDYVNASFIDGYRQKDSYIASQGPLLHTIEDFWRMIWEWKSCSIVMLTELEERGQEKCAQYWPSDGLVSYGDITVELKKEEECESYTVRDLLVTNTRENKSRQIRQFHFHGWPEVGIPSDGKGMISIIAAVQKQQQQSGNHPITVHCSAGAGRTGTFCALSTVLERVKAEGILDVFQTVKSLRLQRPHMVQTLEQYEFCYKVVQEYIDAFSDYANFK

[7] = target: T3, Receptor-type tyrosine-protein phosphatase C (Homo sapiens, UniProt P08575); test: Inhibition of His-tagged CD45 (unknown origin) expressed in Escherichia coli BL21 cells using para-nitrophenyl phosphate as substrate incubated for 5 to 10 mins by microplate reader based spectrophotometric analysis
T3 sequence (P08575 whole entry): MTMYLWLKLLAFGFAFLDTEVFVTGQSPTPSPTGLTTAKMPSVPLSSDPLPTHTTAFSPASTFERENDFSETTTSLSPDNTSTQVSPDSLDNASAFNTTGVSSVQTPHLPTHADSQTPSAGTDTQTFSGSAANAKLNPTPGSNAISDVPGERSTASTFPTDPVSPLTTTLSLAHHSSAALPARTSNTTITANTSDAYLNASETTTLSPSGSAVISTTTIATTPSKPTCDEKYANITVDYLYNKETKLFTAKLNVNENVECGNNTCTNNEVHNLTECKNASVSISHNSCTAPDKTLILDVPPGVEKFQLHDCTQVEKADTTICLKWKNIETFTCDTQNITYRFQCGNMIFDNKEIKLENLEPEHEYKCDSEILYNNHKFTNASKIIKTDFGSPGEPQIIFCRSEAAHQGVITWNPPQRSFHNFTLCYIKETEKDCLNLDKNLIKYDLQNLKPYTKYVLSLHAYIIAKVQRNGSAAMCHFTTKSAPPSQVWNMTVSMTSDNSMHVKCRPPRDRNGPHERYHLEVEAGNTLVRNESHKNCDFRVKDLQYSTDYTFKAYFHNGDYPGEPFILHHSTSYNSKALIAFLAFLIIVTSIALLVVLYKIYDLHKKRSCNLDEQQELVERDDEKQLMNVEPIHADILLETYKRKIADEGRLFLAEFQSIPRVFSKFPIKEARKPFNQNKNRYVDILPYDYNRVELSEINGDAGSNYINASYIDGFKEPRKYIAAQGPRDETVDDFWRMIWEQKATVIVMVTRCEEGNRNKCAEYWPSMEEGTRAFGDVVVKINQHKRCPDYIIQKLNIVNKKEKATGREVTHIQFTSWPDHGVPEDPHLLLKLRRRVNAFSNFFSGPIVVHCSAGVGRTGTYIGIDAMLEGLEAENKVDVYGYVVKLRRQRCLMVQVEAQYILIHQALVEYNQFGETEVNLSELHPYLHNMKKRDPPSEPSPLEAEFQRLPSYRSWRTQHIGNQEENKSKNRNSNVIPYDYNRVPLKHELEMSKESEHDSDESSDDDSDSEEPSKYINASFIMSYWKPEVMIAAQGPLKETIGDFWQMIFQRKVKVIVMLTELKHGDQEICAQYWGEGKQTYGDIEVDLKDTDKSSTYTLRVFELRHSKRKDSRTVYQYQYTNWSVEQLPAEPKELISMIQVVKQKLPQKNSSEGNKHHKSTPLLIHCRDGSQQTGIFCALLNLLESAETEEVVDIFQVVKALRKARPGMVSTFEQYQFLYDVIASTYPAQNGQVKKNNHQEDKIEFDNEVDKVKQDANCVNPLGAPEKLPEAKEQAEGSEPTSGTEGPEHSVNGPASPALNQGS

SMILES	pIC50 [1]	pIC50 [2]	pIC50 [3]	pIC50 [4]	pIC50 [5]	pIC50 [6]	pIC50 [7]
O=C(Nc1nc2ccc([N+](=O)[O-])cc2s1)C(c1ccccc1)S(=O)(=O)O (centres undefined)	< 4.00	< 4.00	< 4.00	< 4.00	< 4.00	< 4.00	< 4.00
Cc1c(Br)cc(NC(=O)C(c2ccccc2)S(=O)(=O)O)cc1Br (centres undefined)	< 3.70	< 3.70	< 3.70	–	< 3.70	< 3.70	< 3.70
O=C(Nc1ccc(-n2ccnc2)cc1)C(c1ccccc1)S(=O)(=O)O (centres undefined)	< 4.00	< 4.00	< 4.00	< 4.00	< 4.00	< 4.00	< 4.00
O=C(Nc1cc(C(F)(F)F)cc(C(F)(F)F)c1)C(c1ccccc1)S(=O)(=O)O (centres undefined)	< 3.70	< 3.70	< 3.70	< 3.70	< 3.70	< 3.70	< 3.70
O=C(Nc1ccc(OCc2ccccc2)c(Cl)c1)C(c1ccccc1)S(=O)(=O)O (centres undefined)	< 3.70	< 3.70	< 3.70	< 3.70	< 3.70	< 3.70	< 3.70
